# Laboratory results from patent US20230293519A1, “INTEGRIN INHIBITORS AND USES THEREOF IN COMBINATION WITH OTHER AGENTS” (Pliant Therapeutics, Inc., priority 2021, published 2023).
# Target: recombinant human integrin αvβ6 (Homo sapiens (Human), UniProt P06756+P18564)
# Assay: Solid phase integrin αvβ6 binding assay
# Details: IC50 presented in four ranges; read-out: αvβ6 Inhibition IC50 (nM) - range
# Protocol: (§1) Microplates were coated with recombinant human integrin αvβ6 (2 µg/mL) in PBS (100 µL/well 25° C., overnight). The coating solution was removed, washed with wash buffer (0.05% Tween 20; 0.5 mM MnCl2; in 1x TBS). The plate was blocked with 200 µL/well of Block Buffer (1% BSA; 5% sucrose; 0.5 mM MnCl2; in 1x TBS) at 37° C. for 2 h. Dilutions of testing compounds and recombinant TGFβ1 LAP (0.67 µg/mL) in binding buffer (0.05% BSA; 2.5% sucrose; 0.5 mM MnCl2; in 1x TBS) were added. The plate was incubated for 2 hours at 25° C., washed, and incubated for 1 hour with Biotin-Anti-hLAP. Bound antibody was detected by peroxidase-conjugated streptavidin. The IC50 values for testing compounds were calculated by a four-parameter logistic regression.
# The compounds tested were compound samples prepared according to procedures described in the Synthetic Examples section, with the stereochemical purity as indicated in the Examples.
# as §1, with “A third series of exemplary compounds was selected for testing in the solid phase integrin αvβ6 binding assay. The compounds tested were compound samples prepared according to procedures described in the Synthetic Examples section, with the stereochemical purity as indicated in the Examples. As in Example B1, microplates” for “Microplates”
# Chain of recombinant human integrin αvβ6 (P06756 31-889): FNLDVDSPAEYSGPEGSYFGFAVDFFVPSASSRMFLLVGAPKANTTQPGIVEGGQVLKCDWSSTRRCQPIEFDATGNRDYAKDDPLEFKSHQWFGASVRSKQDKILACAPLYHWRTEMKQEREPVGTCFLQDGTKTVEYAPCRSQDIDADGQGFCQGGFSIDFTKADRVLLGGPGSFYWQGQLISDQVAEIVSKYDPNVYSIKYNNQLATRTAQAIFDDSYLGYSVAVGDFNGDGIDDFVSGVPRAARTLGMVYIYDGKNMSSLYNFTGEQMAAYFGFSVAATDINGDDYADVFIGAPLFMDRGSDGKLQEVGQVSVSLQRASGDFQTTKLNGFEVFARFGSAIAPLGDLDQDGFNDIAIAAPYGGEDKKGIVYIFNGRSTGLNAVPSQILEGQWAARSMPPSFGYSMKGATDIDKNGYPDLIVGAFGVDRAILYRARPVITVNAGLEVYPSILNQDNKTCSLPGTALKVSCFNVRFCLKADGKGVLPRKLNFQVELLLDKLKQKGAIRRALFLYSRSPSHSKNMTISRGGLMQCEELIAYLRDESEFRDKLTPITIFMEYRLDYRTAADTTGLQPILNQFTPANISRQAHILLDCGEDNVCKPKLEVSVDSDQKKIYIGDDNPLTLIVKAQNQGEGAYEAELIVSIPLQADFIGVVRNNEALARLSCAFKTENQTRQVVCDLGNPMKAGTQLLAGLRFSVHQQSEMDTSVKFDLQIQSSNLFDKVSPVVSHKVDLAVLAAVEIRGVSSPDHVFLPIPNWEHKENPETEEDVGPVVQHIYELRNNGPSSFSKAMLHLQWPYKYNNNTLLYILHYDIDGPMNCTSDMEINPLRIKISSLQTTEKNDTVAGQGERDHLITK
# Chain of recombinant human integrin αvβ6 (P06756 890-992 partner): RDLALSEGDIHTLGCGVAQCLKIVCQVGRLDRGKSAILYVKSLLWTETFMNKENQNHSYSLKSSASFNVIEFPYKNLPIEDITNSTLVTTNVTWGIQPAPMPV
# Chain of recombinant human integrin αvβ6 (P18564 22-707): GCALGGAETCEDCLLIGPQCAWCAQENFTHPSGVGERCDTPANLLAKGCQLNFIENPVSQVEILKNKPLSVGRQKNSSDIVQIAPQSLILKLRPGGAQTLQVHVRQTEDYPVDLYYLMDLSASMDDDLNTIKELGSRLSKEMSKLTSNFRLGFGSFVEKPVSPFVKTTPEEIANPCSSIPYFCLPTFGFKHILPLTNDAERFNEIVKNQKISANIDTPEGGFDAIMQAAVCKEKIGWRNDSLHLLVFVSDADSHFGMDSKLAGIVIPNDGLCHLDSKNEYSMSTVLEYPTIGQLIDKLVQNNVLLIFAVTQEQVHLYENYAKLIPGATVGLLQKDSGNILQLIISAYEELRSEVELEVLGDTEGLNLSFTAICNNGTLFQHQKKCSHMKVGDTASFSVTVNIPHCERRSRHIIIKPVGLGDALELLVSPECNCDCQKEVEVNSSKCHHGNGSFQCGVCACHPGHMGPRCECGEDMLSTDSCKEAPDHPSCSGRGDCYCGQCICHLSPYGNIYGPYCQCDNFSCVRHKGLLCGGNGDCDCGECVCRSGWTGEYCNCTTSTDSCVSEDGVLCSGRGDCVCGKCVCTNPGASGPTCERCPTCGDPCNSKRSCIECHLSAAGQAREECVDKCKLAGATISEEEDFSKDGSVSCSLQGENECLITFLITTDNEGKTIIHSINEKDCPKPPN
row,IC50 [nM],Compound
1,< 50,COC[C@@H](F)CN(CCCCc1ccc2c(n1)NCCC2)CC[C@H](Nc1ncnc2c1cnn2C)C(=O)O [compound 105]
2,250 to 1000,CS(=O)(=O)CCN(CCCCc1ccc2c(n1)NCCC2)CC[C@H](Nc1nc(-c2cccnc2)nc2ccccc12)C(=O)O [compound 107]
3,> 1000,COC[C@@H](F)CN(CCCCc1ccc2c(n1)NCCC2)CC[C@H](Nc1cc(-n2cccn2)ncn1)C(=O)O [compound 108]
4,< 50,COC[C@@H](F)CN(CCCCc1ccc2c(n1)NCCC2)CC[C@H](Nc1nc(-c2cccnc2)nc2ccccc12)C(=O)O [compound 109]
5,< 50,COC[C@@H](F)CN(CCCCc1ccc2c(n1)NCCC2)CC[C@H](Nc1ncncc1-c1ccccc1)C(=O)O [compound 110]
6,< 50,N#Cc1cnc(N[C@@H](CCN(CCCCc2ccc3c(n2)NCCC3)CCOc2ccccc2)C(=O)O)nc1 [compound 111]
7,250 to 1000,O=C(O)[C@H](CCN(CCCCc1ccc2c(n1)NCCC2)CC(F)F)Nc1ncnc2[nH]ncc12 [compound 112]
8,< 50,O=C(O)[C@H](CCN(CCCCc1ccc2c(n1)NCCC2)C1CC1)Nc1ncc(C(F)(F)F)cn1 [compound 114]
9,50 to 250,O=C(O)[C@H](CCN(CCCCc1ccc2c(n1)NCCC2)C1CC1)Nc1ccnc(C(F)(F)F)n1 [compound 115]
10,50 to 250,O=C(O)[C@H](CCN(CCCCc1ccc2c(n1)NCCC2)C1CC1)Nc1ncnc2[nH]ncc12 [compound 116]
11,< 50,O=C(O)[C@H](CCN(CCCCc1ccc2c(n1)NCCC2)CCOc1ccccc1)Nc1ncc(C2CC2)cn1 [compound 117]
12,> 1000,N#Cc1cnc(N[C@@H](CCN(CCCCc2ccc3c(n2)NCCC3)CC(F)F)C(=O)O)nc1 [compound 118]
13,> 1000,O=C(O)[C@H](CCN(CCCCc1ccc2c(n1)NCCC2)CC(F)F)Nc1ncncc1-c1ccccc1 [compound 119]
14,> 1000,O=C(O)[C@H](CCN(CCCCc1ccc2c(n1)NCCC2)CC(F)F)Nc1ccncn1 [compound 120]
15,> 1000,O=C(O)[C@H](CCN(CCCCc1ccc2c(n1)NCCC2)CC(F)F)Nc1ncc(F)cn1 [compound 121]
16,250 to 1000,Cc1cc(N[C@@H](CCN(CCCCc2ccc3c(n2)NCCC3)CC(F)F)C(=O)O)nc(-c2ccncc2)n1 [compound 122]
17,< 50,Cn1ncc2c(N[C@@H](CCN(CCCCc3ccc4c(n3)NCCC4)CCOc3ccc(F)cc3)C(=O)O)ncnc21 [compound 123]
18,< 50,CO[C@H](C)CN(CCCCc1ccc2c(n1)NCCC2)CC[C@H](Nc1ncc(C2CC2)cn1)C(=O)O [compound 124]
19,50 to 250,CS(=O)(=O)CCN(CCCCc1ccc2c(n1)NCCC2)CC[C@H](Nc1ncnc2[nH]ncc12)C(=O)O [compound 125]
20,> 1000,CS(=O)(=O)CCN(CCCCc1ccc2c(n1)NCCC2)CC[C@H](Nc1cc(-n2cccn2)ncn1)C(=O)O [compound 126]
21,250 to 1000,CO[C@H](C)CN(CCCCc1ccc2c(n1)NCCC2)CC[C@H](Nc1ccncn1)C(=O)O [compound 127]

row,IC50 [nM],Compound
1,> 1000,CO[C@H](C)CN(CCCCc1ccc2c(n1)NCCC2)CC[C@H](Nc1cc(-c2ccccc2)ncn1)C(=O)O [compound 128]
2,< 50,O=C(O)[C@H](CCN(CCCCc1ccc2c(n1)NCCC2)CC1CCO1)Nc1ncnc2ccccc12 (stereo partly drawn) [compound 129]
3,< 50,O=C(O)[C@H](CCN(CCCCc1ccc2c(n1)NCCC2)CC(CO)CO)Nc1ncnc2ccccc12 [compound 130]
4,50 to 250,O=C(O)[C@H](CCN(CCCCc1ccc2c(n1)NCCC2)CCC(F)F)Nc1ncc(Br)cn1 [compound 131]
5,50 to 250,O=C(O)[C@H](CCN(CCCCc1ccc2c(n1)NCCC2)CCC(F)F)Nc1ncc(C(F)(F)F)cn1 [compound 132]
6,50 to 250,Cn1ncc2c(N[C@@H](CCN(CCCCc3ccc4c(n3)NCCC4)CCC(F)F)C(=O)O)ncnc21 [compound 133]
7,50 to 250,O=C(O)[C@H](CCN(CCCCc1ccc2c(n1)NCCC2)CCC(F)F)Nc1ccnc(C(F)(F)F)n1 [compound 134]
8,50 to 250,O=C(O)[C@H](CCN(CCCCc1ccc2c(n1)NCCC2)CCC(F)F)Nc1ccnc(C2CC2)n1 [compound 135]
9,< 50,Cn1ncc2c(N[C@@H](CCN(CCCF)CCCCc3ccc4c(n3)NCCC4)C(=O)O)ncnc21 [compound 136]
10,< 50,O=C(O)[C@H](CCN(CCCF)CCCCc1ccc2c(n1)NCCC2)Nc1ncc(C(F)(F)F)cn1 [compound 137]
11,< 50,N#Cc1cnc(N[C@@H](CCN(CCCCc2ccc3c(n2)NCCC3)CCOc2ccc(F)cc2)C(=O)O)nc1 [compound 138]
12,< 50,O=C(O)[C@H](CCN(CCCCc1ccc2c(n1)NCCC2)CCOc1ccc(F)cc1)Nc1ncc(C(F)(F)F)cn1 [compound 139]
13,< 50,CN(C)C(=O)CN(CCCCc1ccc2c(n1)NCCC2)CC[C@H](Nc1ncnc2c1cnn2C)C(=O)O [compound 140]
14,50 to 250,CN(C)C(=O)CN(CCCCc1ccc2c(n1)NCCC2)CC[C@H](Nc1ncc(C(F)(F)F)cn1)C(=O)O [compound 141]
15,> 1000,O=C(O)[C@H](CCN(CCCCc1ccc2c(n1)NCCC2)CC(F)F)Nc1cc(-c2ccccc2)ncn1 [compound 142]
16,50 to 250,O=C(O)[C@H](CCN(CCCCc1ccc2c(n1)NCCC2)CCOc1ccc(F)cc1)Nc1ncnc2[nH]ncc12 [compound 143]
17,50 to 250,O=C(O)[C@H](CCN(CCCCc1ccc2c(n1)NCCC2)CCOc1ccc(F)cc1)Nc1ncc(Br)cn1 [compound 144]
18,< 50,CN(C)C(=O)CN(CCCCc1ccc2c(n1)NCCC2)CC[C@H](Nc1ccnc(C(F)(F)F)n1)C(=O)O [compound 145]
19,> 1000,O=C(O)[C@H](CCN(CCCCc1ccc2c(n1)NCCC2)CC(F)F)Nc1ncc(C2CC2)cn1 [compound 146]
20,50 to 250,O=C(O)[C@H](CCN(CCCCc1ccc2c(n1)NCCC2)CC1(F)COC1)Nc1ncnc2ccccc12 [compound 147]

# Test system: Type I Collagen gene Col1a1 expression
# Assay: Precision cut lung slices of mice under acute bleomycin exposure
# Format: cell-based, mouse
# Details: slices cultured 3 days; integrin inhibitors at IC50, pan-αv and ALK5 inhibitors at 10x IC50
# Protocol: Mice (C57BL/6) were administered 3 U/kg of bleomycin (Teva Pharmaceuticals; North Wales, PA) on day 0 via oropharyngeal aspiration while under anesthesia. On day 14, precision cut lung slices were obtained. Following euthanization, 2% low gelling temp agarose was injected into the mouse lungs via the trachea. […] The lobes were then subjected to precision slicing to obtain samples for culture using a microtome (Compresstome VF-300-0Z, Precisionary; Greenville, NC). Individual slices were distributed in a multiwell culture plate and cultured for 3 days under control (DMSO) and test compound conditions.
row,Compound,Type I Collagen gene Col1a1 expression vs DMSO control
1,"CC(C)(C)c1cc(Br)cc(C(CC(=O)O)NC(=O)CNC(=O)c2cc(O)cc(NC3=NCC(O)CN3)c2)c1 [second pan-αv small molecule inhibitor, (3S)-N-[3-hydroxy-5-[(1,4,5,6-tetrahydro-5-hydroxy-2-pyrimidinyl)amino]benzoyl]glycyl-3-[3-bromo-5-(1,1-dimethylethyl)phenyl]-(3-alanine]",reduced
